How the values were obtained:
[1] = Phase 1b trial: pharmacokinetics of CAPE and its key metabolites in plasma; type: in vivo, human; conditions: AP23573 co-administered with CAPE
Description: Planned pharmacokinetic (PK) and pharmacodynamic (PD) studies included: analysis of plasma, peripheral blood mononuclear cells (PBMC), skin, and tumor samples for effects on mTOR associated pathways*, VEGF* levels and the metabolism of CAPE and fluoropyrimidines (results of studies marked with a “*” are not presented herein).

[2] = Phase I and phase 2 single-agent trials of AP23573; type: in vivo, human; conditions: other dosing schedules
[3] = system: VEGF production in tumor cells; conditions: in vitro; cited from earlier work
[4] = In vitro combination experiments of AP23573 with cytotoxics; type: cell-based; conditions: with several cytotoxics including 5-fluorouracil (5FU)
VEGF = conditions: patients treated with AP23573; cited from earlier work

| Structure (SMILES) | pharmacokinetics of 5FU [1] | dose limiting toxicity [2] | effect on VEGF production [3] | combination effect in vitro [4] | VEGF levels (VEGF) |
| --- | --- | --- | --- | --- | --- |
| O=c1[nH]cc(F)c(=O)[nH]1 [5FU, 5-fluorouracil] | not be impacted |  |  |  |  |
| CO[C@H]1C[C@@H]2CC[C@@H](C)[C@@](O)(O2)C(=O)C(=O)N2CCCC[C@H]2C(=O)O[C@H]([C@H](C)C[C@@H]2CC[C@@H](OP(C)(C)=O)[C@H](OC)C2)CC(=O)[C@H](C)/C=C(\C)[C@@H](O)[C@@H](OC)C(=O)[C@H](C)C[C@H](C)/C=C/C=C/C=C/1C [AP23573] |  | oral mucositis | inhibits VEGF production | at least additive | reduced VEGF levels |

Source: US20090311249A1, “Capecitabine Combination Therapy” (priority 2006, published 2009)
